Drawing on patent US12018009B2, “ALDH-2 inhibitor compounds and methods of use” (Amygdala Neurosciences, Inc., priority 2022, dated 2024), this text covers IC50 and hepatotoxicity in humans for four molecules.

A value given as a limit tells only on which side of the number the result lay.

In one data set the target is T1, MAO-B (Homo sapiens, UniProt P27338).
T1 sequence (P27338 1-520): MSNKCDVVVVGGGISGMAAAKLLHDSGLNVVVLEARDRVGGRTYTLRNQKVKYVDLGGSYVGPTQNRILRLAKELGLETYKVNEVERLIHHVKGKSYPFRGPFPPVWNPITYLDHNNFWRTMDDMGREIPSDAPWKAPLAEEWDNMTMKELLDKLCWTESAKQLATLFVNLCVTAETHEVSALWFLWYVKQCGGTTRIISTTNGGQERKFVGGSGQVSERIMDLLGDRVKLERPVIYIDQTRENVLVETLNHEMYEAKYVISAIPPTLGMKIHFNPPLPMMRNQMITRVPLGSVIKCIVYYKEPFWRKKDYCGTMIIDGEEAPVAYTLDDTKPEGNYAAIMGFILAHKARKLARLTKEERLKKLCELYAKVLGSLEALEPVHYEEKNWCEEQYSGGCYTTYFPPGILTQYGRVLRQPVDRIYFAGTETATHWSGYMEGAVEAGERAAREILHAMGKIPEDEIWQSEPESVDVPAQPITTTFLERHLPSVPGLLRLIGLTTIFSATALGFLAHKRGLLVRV
The data set is described as follows: MAO-B inhibition assay (luminogenic substrate). It counts as biochemical. The settings on record: 20 min pre-incubation; 10 μM = highest concentration tested; read-out: Enzymatic Assays IC50 MAO-B. Here is the method: (§1) D. MAO-A and MAO-B inhibition assays: MAO assays included luminogenic MAO substrate, reaction buffers, Luciferin Detection, and a reconstitution buffer with esterase. The MAO reaction mixture used in the assay included microsome contained MAO-A (2 μg) or MAO-B (10 μg), 160 μM substrate for MAO-A or 16 μM substrate for MAO-B, MAO-A buffer (100 mM Hepes buffer, pH 7.5, 5% glycerol) or MAO-B buffer (100 mM Hepes, pH 7.5, 5% glycerol, 10% dimethyl sulfoxide) in a final volume of 30 μL. After 20 minutes of pre-incubation of the MAO-A or MAO-B enzyme with the test ALDH-2 inhibitor compound, the reaction was initiated by adding enzyme substrate and the […] reaction was allowed to proceed for 60 minutes. Reconstituted Luciferin Detection Reagent (30 μL) was then added is added to simultaneously stop the MAO reaction and convert the methyl ester derivative to luciferin and produce light. The amount of light produced is directly proportional to the activity of MAO. The mixtures were further incubated for 20 minutes and activity of the enzyme was determined using Perkin-Elmer Envision Reader.

A further data set addresses T2, MAO-A (Homo sapiens, UniProt P21397).
T2 sequence (P21397 1-527): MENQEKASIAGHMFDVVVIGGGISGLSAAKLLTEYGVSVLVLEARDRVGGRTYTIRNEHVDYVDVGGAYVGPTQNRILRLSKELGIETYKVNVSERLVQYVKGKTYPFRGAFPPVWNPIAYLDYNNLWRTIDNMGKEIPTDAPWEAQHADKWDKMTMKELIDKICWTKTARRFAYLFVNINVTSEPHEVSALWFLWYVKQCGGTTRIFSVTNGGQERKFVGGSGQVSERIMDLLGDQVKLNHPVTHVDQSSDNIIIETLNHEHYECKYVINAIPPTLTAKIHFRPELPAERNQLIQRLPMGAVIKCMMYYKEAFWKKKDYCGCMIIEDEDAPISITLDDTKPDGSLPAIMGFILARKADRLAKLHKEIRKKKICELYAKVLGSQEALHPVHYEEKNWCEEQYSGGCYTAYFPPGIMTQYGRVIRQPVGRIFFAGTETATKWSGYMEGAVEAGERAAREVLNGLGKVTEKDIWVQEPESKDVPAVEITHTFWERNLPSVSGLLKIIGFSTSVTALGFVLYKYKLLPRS
As to the kind of experiment: MAO-A inhibition assay (luminogenic substrate). The settings on record: 20 min pre-incubation; 10 μM = highest concentration tested; read-out: Enzymatic Assays IC50 MAO-A. The data set is classed as biochemical. Here is the method:
as §1

Another data set concerns the target T3, recombinant human ALDH-2 (Homo sapiens, UniProt P05091).
T3 sequence (P05091 18-517): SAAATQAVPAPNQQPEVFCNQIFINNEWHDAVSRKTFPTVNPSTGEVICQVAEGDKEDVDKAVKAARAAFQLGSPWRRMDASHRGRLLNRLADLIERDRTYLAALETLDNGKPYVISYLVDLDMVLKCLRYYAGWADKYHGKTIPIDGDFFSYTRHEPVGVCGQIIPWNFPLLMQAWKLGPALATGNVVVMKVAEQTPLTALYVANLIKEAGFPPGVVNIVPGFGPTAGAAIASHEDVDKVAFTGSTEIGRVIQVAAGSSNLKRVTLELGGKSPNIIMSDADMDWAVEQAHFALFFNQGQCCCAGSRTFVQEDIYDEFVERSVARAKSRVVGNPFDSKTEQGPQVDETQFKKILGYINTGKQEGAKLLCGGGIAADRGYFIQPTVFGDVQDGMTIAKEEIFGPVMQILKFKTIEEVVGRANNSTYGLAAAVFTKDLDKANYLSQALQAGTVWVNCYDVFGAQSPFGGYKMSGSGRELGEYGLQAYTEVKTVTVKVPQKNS
As to the kind of experiment: ALDH-2 inhibition assay. It counts as biochemical. The settings on record: 60 min pre-incubation; 10 μM = highest concentration tested; read-out: Enzymatic Assays IC50 ALDH2. Here is the method:
A. ALDH-2 inhibition assay: The ALDH-2 reaction mixture used in the assay contained 125 μM formaldehyde, 75 μM NAD+, 20 mM NaCl, 10 mM MgCl2, and 20 nM recombinant human ALDH-2 in 50 mM Hepes buffer, pH 7.5 in a final volume of 10 μL using 384-well Corning 3820 plates. After 60 min of pre-incubation of the test ALDH-2 inhibitor compound with ALDH-2, the reaction was started by adding NAD+ and formaldehyde and the assay reaction mixture was allowed to proceed for 60 minutes. Activity of the ALDH-2 enzyme was determined by monitoring NADH formation using Perkin-Elmer Envision Reader with excitation and emission wavelengths set at 340 and 460 nm, respectively.

For the next data set, the target named is T4, recombinant human ALDH-1 (Homo sapiens, UniProt P00352).
T4 sequence (P00352 1-501): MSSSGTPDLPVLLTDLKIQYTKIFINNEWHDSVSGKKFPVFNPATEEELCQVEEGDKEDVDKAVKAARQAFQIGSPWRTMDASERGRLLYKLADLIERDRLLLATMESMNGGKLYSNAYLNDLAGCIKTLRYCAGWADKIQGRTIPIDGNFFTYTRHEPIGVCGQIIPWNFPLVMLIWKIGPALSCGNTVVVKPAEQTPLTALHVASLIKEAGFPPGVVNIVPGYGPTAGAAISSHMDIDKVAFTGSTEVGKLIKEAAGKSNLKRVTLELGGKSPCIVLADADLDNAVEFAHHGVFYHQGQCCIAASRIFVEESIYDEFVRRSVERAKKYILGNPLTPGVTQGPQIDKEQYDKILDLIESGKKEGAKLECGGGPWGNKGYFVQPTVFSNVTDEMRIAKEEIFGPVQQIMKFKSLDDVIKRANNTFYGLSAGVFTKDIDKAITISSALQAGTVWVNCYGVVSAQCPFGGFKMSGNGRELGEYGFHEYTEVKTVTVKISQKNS
As to the kind of experiment: ALDH-1 inhibition assay. It counts as biochemical. The settings on record: 60 min pre-incubation; 10 μM = highest concentration tested; read-out: Enzymatic Assays IC50 ALDH-1.

For data set [1] the following is noted: O'Malley et al. 2021; cited from earlier work.

Description for recombinant human ALDH-1: B. ALDH-1 inhibition assay: The ALDH-1 reaction mixture used in the assay contained 100 μM formaldehyde, 2.5 mM NAD+, 20 mM NaCl, 10 mM MgCl2, 1 mM dithiothreitol (DTT; reducing agent), and 50 nM recombinant human ALDH-1 in 50 mM Hepes buffer, pH 7.5 in a final volume of 10 μL using 384-well Corning 3820 plates. After 60 min of pre-incubation of the test ALDH-2 inhibitor compound with ALDH-1, the reaction was started by adding NAD+ and formaldehyde and the assay reaction mixture was allowed to proceed for 60 minutes. Activity of the ALDH-1 enzyme was determined by monitoring NADH formation using Perkin-Elmer Envision Reader with excitation and emission wavelengths set at 340 and 460 nm, respectively.

Turning to `Cc1nccc(Cl)c1C(=O)NCc1cnc(N2CCNC(=O)C2)nc1` [(1c), 4-Chloro-2-methyl-N-((2-(3-oxopiperazin-1-yl)pyrimidin-5-yl)methyl)nicotinamide], the IC50 on MAO-B is more than 10 µM; on MAO-A, more than 10 µM; at recombinant human ALDH-2 it was 0.088 µM; at recombinant human ALDH-1 it was more than 10 µM.

Turning to `O=C1CN(c2ncc(CNC(=O)c3ccccc3Cl)cn2)CCN1` [(1b), 2-Chloro-N-((2-(3-oxopiperazin-1-yl)pyrimidin-5-yl)methyl)benzamide], the 50% inhibitory concentration (IC50) on MAO-B is more than 10 µM; on MAO-A, more than 10 µM; at recombinant human ALDH-2, 0.264 µM; on recombinant human ALDH-1, more than 10 µM.

Take `O=C(NCc1ccc(-c2cc[nH]c(=O)c2)cc1)c1c(Cl)cccc1Cl` [2,6-dichloro-N-[4-(2-oxo-1,2-dihydro-pyridin-4-yl)-benzyl]-benzamide]: in data set [1], the hepatotoxicity in humans entry is reported as “high levels of hepatotoxicity”.

On to `Cc1cccc(Cl)c1C(=O)NCc1cnc(N2CCNC(=O)C2)nc1` [(1a), 2-Chloro-6-methyl-N-((2-(3-oxopiperazin-1-yl)pyrimidin-5-yl)methyl)benzamide], for which the IC50 on MAO-B was more than 10 µM; on MAO-A, more than 10 µM; at recombinant human ALDH-2, 0.089 µM; at recombinant human ALDH-1, more than 10 µM.

By IC50 is commonly meant the concentration at which inhibition is half-maximal.
